In patent publication US6545020B1, “Farnesyl Protein transferase inhibitors with in vivo radiosensitizing properties” (Janssen Pharmaceutica, N.V., priority 1998, dated 2003):

Key:
U87 = assay: Radiosensitization of radioresistant human glioma cell line U87 (surviving fraction after 2 Gy); type: cell-based; settings: 2 nM, 48 h prior to irradiation (2 Gy)
Procedure: (§1) Radioresistant human glioma cell lines (SF763, U87, U251) were treated with compound 75, 48 h prior to irradiation (2 Gy). The dose administered was 0.4 nM for U251 and 2 nM for SF763 and U87.

[1] = tested on: LoVo human colon tumor cells; assay: LoVo human colon tumor xenograft in athymic nude mice, oral treatment with or without single 7 Gy irradiation on day 32; type: in vivo
From the text: Male athymic nude mice weighing approximately 22 to 25 g were inoculated subcutaneously in the inguinal region with 1×10^6 of LoVo human colon tumor cells (LoVo cells) on day 0. After three weeks to allow tumors to become established (diameter approximately 0.5 to 1 cm), treatment was started with solvent or compound 75 via the oral route, and either with or without a single shot irradiation on day 32. Parameters for activity were tumor growth rate and weight of the tumors at day 42.
Compound 75 was dissolved in water and acidified with 1 N HCl solution to pH 2.5 and administered orally (po) as 0.1 ml of compound solution per 10 g mouse body weight twice daily (bid). The dose administered was either 50 or 100 mg compound per kg bodyweight; treatment either preceded irradiation (days 22-32), followed irradiation (days 32-42) or continued throughout the duration of the experiment (days 22-42).
In each arm of the experiment 16 animals were included. The column ‘tumor (g)’ contains the median of the tumor weight of the animals sacrificed at day 42 of the experiment. FIGS. 1 and 2 represent the observed data in graphical form.

U251 = assay: Radiosensitization of radioresistant human glioma cell line U251 (surviving fraction after 2 Gy); type: cell-based; settings: 0.4 nM, 48 h prior to irradiation (2 Gy)
Procedure: as §1

SF763 = assay: Radiosensitization of radioresistant human glioma cell line SF763 (surviving fraction after 2 Gy); type: cell-based; settings: 2 nM, 48 h prior to irradiation (2 Gy)
Procedure: as §1

Cn1cncc1[C@@](N)(c1ccc(Cl)cc1)c1ccc2c(c1)c(-c1cccc(Cl)c1)cc(=O)n2C [Compound 75, (+)-(R)-6-[amino(4-chlorophenyl)(1-methyl-1H-imidazol-5-yl)methyl]-4-(3-chloro-phenyl)-1-methyl-2(1H)-quinolinone]
decrease of surviving fraction after irradiation (U87): about 55%
tumor (g), median tumor weight at day 42 ([1]; Group II, 50 mpk po bid, day 22-42, irradiation none): 0.255 g
tumor (g), median tumor weight at day 42 ([1]; Group III, 50 mpk po bid, day 22-32, irradiation none): 0.273 g
tumor (g), median tumor weight at day 42 ([1]; Group IV, 50 mpk po bid, day 32-42, irradiation none): 0.295 g
tumor (g), median tumor weight at day 42 ([1]; Group IX, 50 mpk po bid, day 22-32, irradiation 7 Gy on day 32): 0.156 g
tumor (g), median tumor weight at day 42 ([1]; Group V, 100 mpk po bid, day 22-42, irradiation none): 0.205 g
tumor (g), median tumor weight at day 42 ([1]; Group VI, 100 mpk po bid, day 22-32, irradiation none): 0.234 g
tumor (g), median tumor weight at day 42 ([1]; Group VII, 100 mpk po bid, day 32-42, irradiation none): 0.277 g
tumor (g), median tumor weight at day 42 ([1]; Group VIII, 50 mpk po bid, day 22-42, irradiation 7 Gy on day 32): 0.207 g
tumor (g), median tumor weight at day 42 ([1]; Group X, 50 mpk po bid, day 32-42, irradiation 7 Gy on day 32): 0.259 g
tumor (g), median tumor weight at day 42 ([1]; Group XI, 100 mpk po bid, day 22-42, irradiation 7 Gy on day 32): 0.164 g
tumor (g), median tumor weight at day 42 ([1]; Group XII, 100 mpk po bid, day 22-32, irradiation 7 Gy on day 32): 0.141 g
tumor (g), median tumor weight at day 42 ([1]; Group XIII, 100 mpk po bid, day 32-42, irradiation 7 Gy on day 32): 0.214 g
effect of treatment on the effect of irradiation (statistical analysis) ([1]; both 50 and 100 mpk): potentiates the effect of irradiation
effect of pretreatment and irradiation on tumor weight compared to irradiation alone ([1]; pretreatment, both 50 and 100 mpk, plus irradiation): reduces tumor weight in a statistically significant manner
decrease of surviving fraction after irradiation (U251): 25%
decrease of surviving fraction after irradiation (SF763): about 55%
